Toxic doses and inconclusive results are not listed. How the source made its calls: active means survival T/C of 150% or more; inactive means T/C below 125% in these data.
System: P388 leukemia ip, CD2F1 mice, survival T/C
Assay: NCI In Vivo Anticancer Drug Screen. Data for tumor model P388 Leukemia (intraperitoneal) in CD2F1 (CDF1) mice
Details: endpoint: median survival time, higher = longer survival
In short: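 Mice carrying the transplanted tumor received test compound or vehicle. Survival was recorded in each group, and the value is the treated-group measurement divided by that of the vehicle-treated control group.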

[1] = dose: 60.0 mg/kg/injection, schedule: Q01DX005 (ip), vehicle: Klucel (hydroxypropylcellulose) (HPC)
[2] = dose: 120.0 mg/kg/injection, schedule: Q01DX005 (ip), vehicle: Klucel (hydroxypropylcellulose) (HPC)
[3] = dose: 240.0 mg/kg/injection, schedule: Q01DX005 (ip), vehicle: Klucel (hydroxypropylcellulose) (HPC)
[4] = dose: 60.0 mg/kg/injection, schedule: Q01DX005 (ip), vehicle: saline with Tween-80
[5] = dose: 120.0 mg/kg/injection, schedule: Q01DX005 (ip), vehicle: saline with Tween-80
[6] = dose: 50.0 mg/kg/injection, schedule: Q01DX005 (ip), vehicle: saline with Tween-80
[7] = dose: 100.0 mg/kg/injection, schedule: Q01DX005 (ip), vehicle: saline with Tween-80
[8] = dose: 200.0 mg/kg/injection, schedule: Q01DX005 (ip), vehicle: saline with Tween-80

Measured: T/C

COc1ccc2c(c1)OC(C)(C)c1c-2n(C)c2c(F)cccc2c1=O
inactive: [1] 100 % of control | [2] 101 % of control | [3] 101 % of control

CCNC(=O)OCCN(CCOC(=O)NCC)CCc1ccccc1
inactive: dose: 60.0 mg/kg/injection, schedule: Q01DX005 (ip), vehicle: saline 110 % of control | dose: 120.0 mg/kg/injection, schedule: Q01DX005 (ip), vehicle: saline 117 % of control | dose: 240.0 mg/kg/injection, schedule: Q01DX005 (ip), vehicle: saline 99 % of control

O=C1OC(C2OC(=O)C(=O)C2C(=O)c2ccc([N+](=O)[O-])cc2)C(C(=O)c2ccc([N+](=O)[O-])cc2)C1=O (stereo not drawn)
inactive: [4] 98 % of control | [5] 94 % of control

CC(C)C1OCC(CO)([N+](=O)[O-])CO1 (stereo not drawn)
inactive: [4] 102 % of control | [5] 100 % of control | dose: 240.0 mg/kg/injection, schedule: Q01DX005 (ip), vehicle: saline with Tween-80 93 % of control

CC(=O)C1(C)Nc2cccc3cccc(c23)N1
inactive: dose: 50.0 mg/kg/injection, schedule: Q01DX005 (ip), vehicle: Klucel (hydroxypropylcellulose) (HPC) 100 % of control | dose: 100.0 mg/kg/injection, schedule: Q01DX005 (ip), vehicle: Klucel (hydroxypropylcellulose) (HPC) 96 % of control | dose: 200.0 mg/kg/injection, schedule: Q01DX005 (ip), vehicle: Klucel (hydroxypropylcellulose) (HPC) 101 % of control

[N-]=[N+]=CC(=O)C1OC1c1ccc2ccccc2c1 (stereo not drawn)
inactive: dose: 25.0 mg/kg/injection, schedule: Q01DX005 (ip), vehicle: saline with Tween-80 93 % of control | [6] 100 % of control | [7] 99 % of control | [8] 105 % of control

NC1C(=O)OC(C(O)CO)C1O (stereo not drawn)
inactive: dose: 12.5 mg/kg/injection, schedule: Q01DX009 (ip), vehicle: water 100 % of control | dose: 25.0 mg/kg/injection, schedule: Q01DX009 (ip), vehicle: water 100 % of control | dose: 50.0 mg/kg/injection, schedule: Q01DX009 (ip), vehicle: water 104 % of control | dose: 100.0 mg/kg/injection, schedule: Q01DX009 (ip), vehicle: water 98 % of control | dose: 200.0 mg/kg/injection, schedule: Q01DX009 (ip), vehicle: water 97 % of control

CCSC(=Nc1nc2ccc(NC(C)=O)cc2s1)SCC
inactive: dose: 6.25 mg/kg/injection, schedule: Q01DX009 (ip), vehicle: Klucel (hydroxypropylcellulose) (HPC) 97 % of control | dose: 12.5 mg/kg/injection, schedule: Q01DX009 (ip), vehicle: Klucel (hydroxypropylcellulose) (HPC) 101 % of control | dose: 25.0 mg/kg/injection, schedule: Q01DX009 (ip), vehicle: Klucel (hydroxypropylcellulose) (HPC) 98 % of control

Cc1cc(N)c2cc(NC(=O)CCCCCC(=O)Nc3ccc4nc(C)cc(N)c4c3)ccc2n1
inactive: dose: 6.25 mg/kg/injection, schedule: Q01DX009 (ip), vehicle: saline with Tween-80 100 % of control | dose: 12.5 mg/kg/injection, schedule: Q01DX009 (ip), vehicle: saline with Tween-80 110 % of control | dose: 25.0 mg/kg/injection, schedule: Q01DX009 (ip), vehicle: saline with Tween-80 118 % of control

CN1C(=O)c2ccccc2N=CN1C(=O)Nc1ccccc1
inactive: [6] 94 % of control | [7] 90 % of control | [8] 88 % of control

CC1OS(=O)(=O)CS(=O)(=O)OC1C (stereo not drawn)
inactive: [4] 101 % of control | [5] 101 % of control

NC(=O)CCS(=O)(=O)Cc1ccccc1
inactive: [6] 98 % of control | [7] 95 % of control | [8] 93 % of control

CC(=N/N=C(N)N)/C(C)=N/N=C(N)N
inactive: [6] 104 % of control | [7] 110 % of control

Cc1c(-c2ccccc2)n[nH]c1-c1[nH]nc(-c2ccccc2)c1C
inactive: [1] 93 % of control | [2] 94 % of control | [3] 93 % of control

CC(C(=O)O)c1ccc2oc(-c3ccc(Cl)cc3)nc2c1 (stereo not drawn)
inactive: dose: 50.0 mg/kg/injection, schedule: Q01DX009 (ip), vehicle: suspension in saline 104 % of control | dose: 100.0 mg/kg/injection, schedule: Q01DX009 (ip), vehicle: suspension in saline 100 % of control | dose: 200.0 mg/kg/injection, schedule: Q01DX009 (ip), vehicle: suspension in saline 100 % of control

O=C1OC(c2ccccc2)(c2ccc(Cl)cc2)CC1/C=C(\c1ccccc1)c1ccc(Cl)cc1 (stereo not drawn)
inactive: [6] 96 % of control | [7] 90 % of control | [8] 91 % of control
